Tests used:
[1] = biological target: T1, human creatine transporter (CRT) (Homo sapiens, UniProt P48029); experiment: cryo-EM structure ([…] Å); IC50 from […]creatine uptake inhibition in HEK293 cells; assay type: cell-based
T1 construct: gene SLC6A8; full-length wild-type
T1 sequence (P48029 1-635): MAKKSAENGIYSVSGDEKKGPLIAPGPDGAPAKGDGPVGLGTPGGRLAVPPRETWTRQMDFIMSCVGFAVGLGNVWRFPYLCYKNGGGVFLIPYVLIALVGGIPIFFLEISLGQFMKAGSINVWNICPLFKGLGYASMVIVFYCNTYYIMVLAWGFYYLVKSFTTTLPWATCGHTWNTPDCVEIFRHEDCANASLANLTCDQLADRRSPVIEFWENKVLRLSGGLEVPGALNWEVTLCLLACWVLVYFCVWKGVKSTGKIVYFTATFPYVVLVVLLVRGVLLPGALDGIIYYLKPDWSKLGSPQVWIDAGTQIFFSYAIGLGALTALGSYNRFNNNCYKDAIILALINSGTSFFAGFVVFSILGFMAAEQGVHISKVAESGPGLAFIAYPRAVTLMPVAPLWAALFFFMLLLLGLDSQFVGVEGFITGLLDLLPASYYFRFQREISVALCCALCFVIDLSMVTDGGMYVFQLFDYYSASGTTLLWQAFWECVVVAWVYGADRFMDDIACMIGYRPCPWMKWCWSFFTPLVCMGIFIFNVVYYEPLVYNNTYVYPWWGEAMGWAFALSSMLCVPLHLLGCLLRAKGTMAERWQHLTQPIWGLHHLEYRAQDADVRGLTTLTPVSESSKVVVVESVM

[2] = substrate: CN(CC(=O)O)C(=N)N; experiment: cells, lysate or membranes; assay type: cell-based, Homo sapiens; settings: Na+ and Cl- (Na+[…] and Cl- in the structure) central binding site; Tyr148, Ser417, Ala69, Phe315, Gly73; guanidine group surrounded by Phe68, Tyr148, Phe315; contacts Na+[…]

Molecule: N=C(N)NCCC(=O)O [RGX, RGX-202]
- IC50 [1]: 53 µM

B1: human creatine transporter (CRT) (Homo sapiens) (protein)
chain: MAKKSAENGIYSVSGDEKKGPLIAPGPDGAPAKGDGPVGLGTPGGRLAVPPRETWTRQMDFIMSCVGFAVGLGNVWRFPYLCYKNGGGVFLIPYVLIALVGGIPIFFLEISLGQFMKAGSINVWNICPLFKGLGYASMVIVFYCNTYYIMVLAWGFYYLVKSFTTTLPWATCGHTWNTPDCVEIFRHEDCANASLANLTCDQLADRRSPVIEFWENKVLRLSGGLEVPGALNWEVTLCLLACWVLVYFCVWKGVKSTGKIVYFTATFPYVVLVVLLVRGVLLPGALDGIIYYLKPDWSKLGSPQVWIDAGTQIFFSYAIGLGALTALGSYNRFNNNCYKDAIILALINSGTSFFAGFVVFSILGFMAAEQGVHISKVAESGPGLAFIAYPRAVTLMPVAPLWAALFFFMLLLLGLDSQFVGVEGFITGLLDLLPASYYFRFQREISVALCCALCFVIDLSMVTDGGMYVFQLFDYYSASGTTLLWQAFWECVVVAWVYGADRFMDDIACMIGYRPCPWMKWCWSFFTPLVCMGIFIFNVVYYEPLVYNNTYVYPWWGEAMGWAFALSSMLCVPLHLLGCLLRAKGTMAERWQHLTQPIWGLHHLEYRAQDADVRGLTTLTPVSESSKVVVVESVM
notes: full-length wild-type
- Km [2]: 106.3 µM

Source: publication PMC12053652, “Transport and inhibition mechanisms of human creatine transporter” (Cell Discovery, 2025)
